Experimental data as given in publication PMC11035696, “Prospective de novo drug design with deep interactome learning” (Nature Communications, 2024).
Several values for one entry are separate records, joined by “and”; a condition that tells them apart may be missing. Equal values may be shown once.

Key:
liver X receptor (LXR)α = biological target: T1, liver X receptor (LXR)α (Homo sapiens, UniProt Q13133); experiment: Nuclear receptor selectivity profiling, hybrid reporter gene assay, LXRα; format: cell-based
T1 construct: LXRα (pFA-CMV-hLXRα-LBD[104], 1 μM TO901317); expressed in transfected cells; host or cells: HEK293T
T1 sequence (Q13133 209-447 limits assumed): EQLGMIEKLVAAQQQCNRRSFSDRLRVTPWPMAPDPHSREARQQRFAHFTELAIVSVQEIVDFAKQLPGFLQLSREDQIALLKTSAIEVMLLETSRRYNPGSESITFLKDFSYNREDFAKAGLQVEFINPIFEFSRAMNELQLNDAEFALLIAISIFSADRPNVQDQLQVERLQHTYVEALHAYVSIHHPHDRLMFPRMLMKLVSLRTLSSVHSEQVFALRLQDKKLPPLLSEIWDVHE
Protocol: PPAR activation was determined in uniform Gal4-hybrid reporter gene assays for the PPARα, PPARγ and PPARδ isoforms in HEK293T cells (German Collection of Microorganisms and Cell Culture GmbH, DSMZ) which were transiently transfected with pFR-Luc (Stratagene, La Jolla, CA, USA; reporter) and pRL-SV40 (Promega, Madison, WI, USA; internal control) and one pFA-CMV-hPPAR-LBD[97] clone, coding for the hinge region and ligand binding domain of the canonical isoform of human PPARα, PPARγ, PPARδ or respectively. Cells were cultured in Dulbecco’s modified Eagle’s medium (DMEM), high glucose supplemented with 10% fetal calf serum (FCS), sodium pyruvate (1 mM), penicillin (100 U ⋅ ml^-1), and streptomycin (100 μg ⋅ ml^-1) at 37 °C and 5% CO2 and seeded in 96-well plates (3 × 10^4 cells per well). After 24 h, medium was changed to Opti-MEM without supplements and cells were transiently transfected using Lipofectamine LTX reagent (Invitrogen) according to the manufacturer’s protocol. Five hours after transfection, cells were incubated with the test compounds in Opti-MEM supplemented with penicillin (100 U ⋅ ml^-1), streptomycin (100 μg ⋅ ml^-1) and 0.1% DMSO for 16 h before luciferase activity was measured using the Dual-Glo Luciferase Assay System (Promega) according to the manufacturer’s protocol on a Tecan Spark luminometer (Tecan Deutschland GmbH, Germany). Firefly luminescence was divided by Renilla luminescence and multiplied by 1000 resulting in relative light units (RLU) to normalize for transfection efficiency and cell growth. Fold activation was obtained by dividing the mean RLU of a test compound by the mean RLU of the untreated control. All samples were tested in at least three biologically independent experiments in duplicates. For dose-response curve fitting and calculation of EC50 values, the equation “[Agonist] versus response (variable slope—four parameters)” was used in GraphPad Prism (version 7.00, GraphPad Software, La Jolla, CA, USA) with fold activation data. The reference agonizts GW7647 (PPARα)[98],[99], pioglitazone (PPARγ)[100],[101] and L165,041 (PPARδ)[102],[103] were used to validate the assays and to monitor assay performance. Nuclear receptor selectivity profiling was performed with corresponding pFA-CMV-hNR-LBD clones and suitable reference agonizts on RARα (pFA-CMV-hRARα-LBD[104], 1 μM tretinoin), LXRα (pFA-CMV-hLXRα-LBD[104], 1 μM TO901317) and RXRα (pFA-CMV-h RXRα-LBD[105], 1 μM Bexarotene).

P-glycoprotein (Pgp) = P-glycoprotein (Pgp) efflux assay; format: in vitro ADME; conditions: mouse; for Papp: PAMPA, read-out: PgP Transport mouse permeability; for efflux ratio: not told, read-out: PgP Transport mouse apical efflux ratio
Protocol: (§1) Compounds 1–3 were characterized in a hybrid reporter gene assay for their agoniztic effect on human nuclear receptors PPARα/γ/δ, RXRα, FXRα, RARα in HEK293T cells. Compound 1 was tested in an isothermal titration calorimetry (ITC) assay to measure direct binding affinity to the ligand-binding domain of PPARγ. ADME properties were measured in standardized assays at Roche.
(§2) SI11Absorption Distribution Metabolism and Excretion and Toxicity Data
(§3) To assess the drug-like characteristics of the newly designed PPAR modulators, a series of tests were conducted covering various aspects of absorption, distribution, metabolism, and excretion (ADME) properties. Specifically, these assessments included the parallel artificial membrane permeability assay (PAMPA) with permeation co- […]
(§4) efficients ([…]), LogD measurements, microsomal clearance, hepatocyte clearance, P-glycoprotein (Pgp) efflux ratio and binding and the unbound free fraction. […]
(§5) Table S14: Absorption distribution metabolism and excretion (ADME) properties of compounds 1 and 2. The […]
values for […], LogD, protein binding, P-glycoprotein (Pgp) efflux ratio and permeability, and hepato-cyte clearance are presented as the mean and standard deviation, with a sample size of N = 3, i.e., 3 technical replicates each. The values for microsomal clearance and CYP-inhibition represent single point measurements. […]
(§6) PgP Transport mouse apical efflux ratio - 1.6 1.2
(§7) PgP Transport mouse permeability (nm·sec−1) - 15 60 […]

[1] = Hepatocyte clearance, human; format: in vitro ADME; set-up: Hepatocyte clearance human: unit not given here; conditions: for Hepatocyte clearance human: human hepatocytes, as printed in Table S14
Protocol: as §1, §2, §3, §4, §5
values for […], LogD, protein binding, P-glycoprotein (Pgp) efflux ratio and permeability, and hepato-cyte clearance are presented as the mean and standard deviation, with a sample size of N = 3, i.e., 3 technical replicates each. The values for microsomal clearance and CYP-inhibition represent single point measurements.
Microsomal clearance, human (µL·min−1·mg−1 protein) ≥10 ≥10 ≥10
Microsomal clearance, mouse (µL·min−1·mg−1 protein) ≥10 ≥10 ≥10
Microsomal clearance, rat (µL·min−1·mg−1 protein) ≥10 ≥10 ≥10
Protein binding human (% free fraction) (%) - 0.21 0.42
as §6, §7

CYP1A2 = CYP1A2 (Homo sapiens, UniProt P05177); experiment: CYP inhibition dose-response; format: in vitro ADME; conditions: substrate PHENACETIN
Protocol: as §2, §3
(§8) efficients ([…]), LogD measurements, microsomal clearance, hepatocyte clearance, P-glycoprotein (Pgp) efflux ratio and binding and the unbound free fraction. Furthermore, the evaluation of inhibition po-tential against cytochrome P450 isoenzymes (CYP) proteins was investigated. For seven selected CYP proteins (i.e., Cyp3A4, Cyp1A2, Cyp2B6, Cyp2C9, Cyp2D6, Cyp2C19, and Cyp2C8) the half maximal inhibitory con-centration (IC50) was determined. (Table S15). […]
(§9) activity in the CYP assays was found.
(§10) Table S14: Absorption distribution metabolism and excretion (ADME) properties of compounds 1 and 2. […]
(§11) The values for microsomal clearance and CYP-inhibition represent single point measurements. […]
(§12) Molecule Enzyme Substrate IC50 (µM) […]

CYP2B6 = CYP2B6 (Homo sapiens, UniProt P20813); experiment: CYP inhibition dose-response; format: in vitro ADME; conditions: substrate BUPROPION
Protocol: as §2, §3, §8, §9, §10, §11, §12

CYP2C19 = CYP2C19 (Homo sapiens, UniProt P33261); experiment: CYP inhibition dose-response; format: in vitro ADME; conditions: substrate S-MEPHENYTOIN
Protocol: as §2, §3, §8, §9, §10, §11, §12

CYP1A2, sequence (P05177 whole entry): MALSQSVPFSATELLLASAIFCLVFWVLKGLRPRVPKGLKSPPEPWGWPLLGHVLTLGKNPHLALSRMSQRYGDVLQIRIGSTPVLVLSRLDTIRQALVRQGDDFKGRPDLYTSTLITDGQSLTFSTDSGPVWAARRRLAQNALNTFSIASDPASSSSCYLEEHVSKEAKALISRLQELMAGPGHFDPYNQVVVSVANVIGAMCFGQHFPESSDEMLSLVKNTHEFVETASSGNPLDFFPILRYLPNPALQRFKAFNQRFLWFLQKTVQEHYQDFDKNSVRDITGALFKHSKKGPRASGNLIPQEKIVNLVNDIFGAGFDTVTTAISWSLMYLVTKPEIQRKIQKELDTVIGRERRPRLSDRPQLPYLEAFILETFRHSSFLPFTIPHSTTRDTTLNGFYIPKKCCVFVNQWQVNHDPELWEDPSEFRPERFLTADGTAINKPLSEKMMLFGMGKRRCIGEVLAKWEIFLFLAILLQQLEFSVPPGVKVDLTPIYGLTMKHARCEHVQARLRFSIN
CYP2C19, sequence (P33261 whole entry): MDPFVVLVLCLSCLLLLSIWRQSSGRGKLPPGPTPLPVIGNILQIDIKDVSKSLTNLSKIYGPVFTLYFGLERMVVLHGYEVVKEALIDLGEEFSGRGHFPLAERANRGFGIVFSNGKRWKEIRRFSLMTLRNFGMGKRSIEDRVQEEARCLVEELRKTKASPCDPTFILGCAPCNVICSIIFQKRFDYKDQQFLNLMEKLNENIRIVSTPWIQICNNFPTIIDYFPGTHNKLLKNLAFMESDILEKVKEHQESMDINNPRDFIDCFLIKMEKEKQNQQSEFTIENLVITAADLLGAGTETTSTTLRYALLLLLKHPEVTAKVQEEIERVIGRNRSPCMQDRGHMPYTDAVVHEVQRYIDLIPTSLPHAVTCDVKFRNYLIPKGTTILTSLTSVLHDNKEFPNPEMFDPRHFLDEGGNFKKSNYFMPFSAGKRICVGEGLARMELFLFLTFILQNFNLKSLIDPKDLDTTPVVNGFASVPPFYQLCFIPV
CYP2B6, sequence (P20813 whole entry): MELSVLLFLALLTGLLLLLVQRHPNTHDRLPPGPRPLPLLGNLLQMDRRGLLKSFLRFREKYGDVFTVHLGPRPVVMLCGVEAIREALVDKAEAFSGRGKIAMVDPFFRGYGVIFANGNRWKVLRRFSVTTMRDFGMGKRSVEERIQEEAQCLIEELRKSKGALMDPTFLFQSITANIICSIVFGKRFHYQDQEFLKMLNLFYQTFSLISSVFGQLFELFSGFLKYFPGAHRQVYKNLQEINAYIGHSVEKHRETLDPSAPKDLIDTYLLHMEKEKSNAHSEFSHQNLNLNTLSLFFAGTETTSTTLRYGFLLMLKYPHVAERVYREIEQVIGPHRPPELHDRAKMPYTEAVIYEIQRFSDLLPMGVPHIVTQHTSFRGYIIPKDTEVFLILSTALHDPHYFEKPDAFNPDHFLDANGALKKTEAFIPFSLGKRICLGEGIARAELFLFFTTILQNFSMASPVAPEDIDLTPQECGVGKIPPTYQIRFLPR

Compound | LXRα reporter activation, replicate values (DMSO ctrl = 1,000) (liver X receptor (LXR)α; 3 µM) | LXRα reporter activation, replicate values (DMSO ctrl = 1,000) (liver X receptor (LXR)α; 10 µM) | Papp (P-glycoprotein (Pgp)) [×10⁻⁶ cm/s] | efflux ratio (P-glycoprotein (Pgp)) | clearance rate in human hepatocytes [1] [μL·min−1 10^6 cells−1] | Hepatocyte clearance human [1] | IC50 (CYP1A2) [µM] | IC50 (CYP2B6) [µM] | IC50 (CYP2C19) [µM]
Cc1nnc(-c2ccc(OCCCOc3ccc(CCC(=O)O)c(F)c3)c(F)c2)s1 [Compound 1] | 1,029 and 1,028 and 1,248 | 3,397 and 1,447 and 1,490 | 1.5 | 1.6 | 19 | 19 | > 20 | > 20 | > 20
COc1ccc(Oc2ccc3ncn(CCOc4ccc(CCC(=O)O)cc4)c3c2)cc1 [Compound 2] | 0,566 and 1,566 and 1,418 | 1,976 and 2,098 and 2,121 | 6 | 1.2 | 19 | 19 | > 20 | > 20 | > 20
